Calls of active or inactive are those of the source.
Assays:
[1] = tested on: H4; test: Luminescence Cell-Based Dose Response HTS to Identify Activators of 5'UTR Stem-Loop Driven Prion Protein mRNA Translation in H4 Neuroglioblastoma Cells. [Related pubchem assays: 1829 (Project Summary), 1814 (Primary HTS)]; type: functional; conditions: Homo sapiens
[2] = Luminescence Cell-Based Dose Response HTS to Identify Activators of Luciferase Translation or Activity in H4 […] Cells. [Related pubchem assays: 1829 (Project Summary), 1814 (Primary HTS)]; type: functional
[3] = tested on: Vero; test: mammalian cell viability reduction – secondary assay, cytotoxicity control for West Nile virus antiviral project, dose response (AID 1650); type: functional; conditions: Chlorocebus sabaeus
[4] = Luminescence Cell-Based Dose Retest to Confirm Inhibitors of Cancer Stem Cells. [Related pubchem assays (depositor defined):AID2717, AID2721]; type: functional; conditions: Homo sapiens
[5] = Luminescence Cell-Based Dose Confirmation HTS to Identify Activators of 5'UTR Stem-Loop Driven Alpha-Synuclein mRNA Translation in H4 Neuroglioblastoma Cells. [Related pubchem assays: 1829 (Project Summary), 1814 (Primary HTS)]; type: functional
[6] = tested on: Vero; test: inhibition of WNV-induced cytopathic effect – cell-based, CPE readout (AID 1621); type: functional; conditions: Chlorocebus sabaeus
[7] = target: T1, Microphthalmia-associated transcription factor (Homo sapiens, UniProt O75030); test: reducers of TRPM1 reporter luminescence, concentration series – cell-based, SK-MEL-5, cherry-picked, set 3, MITF inhibitor project, dose response (AID 493073); type: functional;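 further: SK-MEL-5 melanoma cells with luciferase driven by the MITF target TRPM1 promoter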
T1 sequence (O75030 whole entry): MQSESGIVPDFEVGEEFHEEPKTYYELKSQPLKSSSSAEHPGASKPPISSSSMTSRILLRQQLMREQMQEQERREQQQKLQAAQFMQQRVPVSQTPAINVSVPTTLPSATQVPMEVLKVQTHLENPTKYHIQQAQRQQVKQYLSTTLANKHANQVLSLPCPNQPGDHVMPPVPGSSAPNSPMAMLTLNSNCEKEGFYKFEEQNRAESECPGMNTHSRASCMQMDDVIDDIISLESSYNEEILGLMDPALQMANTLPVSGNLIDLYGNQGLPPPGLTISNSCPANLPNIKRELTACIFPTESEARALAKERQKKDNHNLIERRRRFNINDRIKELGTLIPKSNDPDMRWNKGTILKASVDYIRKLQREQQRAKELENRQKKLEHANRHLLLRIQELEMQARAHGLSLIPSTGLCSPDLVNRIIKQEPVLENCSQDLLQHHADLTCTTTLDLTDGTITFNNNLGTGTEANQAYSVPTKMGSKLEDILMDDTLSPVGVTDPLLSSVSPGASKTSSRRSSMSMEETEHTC

[8] = target: FAD-linked sulfhydryl oxidase ALR (Homo sapiens, UniProt P55789); test: ALR-catalysed DTT oxidation blockers – biochemical, H2O2 detection, luminescence, cherry-pick, dose response (AID 493248)
[9] = target: T2, Aryl hydrocarbon receptor (Homo sapiens, UniProt P35869); test: Luminescence-based cell-based high throughput dose response assay for activators of the Aryl Hydrocarbon Receptor (AHR). [Related pubchem assays: 2796 (Primary screen (AHR activators in singlicate)), 2845 (Confirmation screen (AHR activators in triplicate)), 434939 (Counterscreen (PXR activators in triplicate)), 2804 (Summary (AHR activators))]; type: ADME
T2 sequence (P35869 whole entry): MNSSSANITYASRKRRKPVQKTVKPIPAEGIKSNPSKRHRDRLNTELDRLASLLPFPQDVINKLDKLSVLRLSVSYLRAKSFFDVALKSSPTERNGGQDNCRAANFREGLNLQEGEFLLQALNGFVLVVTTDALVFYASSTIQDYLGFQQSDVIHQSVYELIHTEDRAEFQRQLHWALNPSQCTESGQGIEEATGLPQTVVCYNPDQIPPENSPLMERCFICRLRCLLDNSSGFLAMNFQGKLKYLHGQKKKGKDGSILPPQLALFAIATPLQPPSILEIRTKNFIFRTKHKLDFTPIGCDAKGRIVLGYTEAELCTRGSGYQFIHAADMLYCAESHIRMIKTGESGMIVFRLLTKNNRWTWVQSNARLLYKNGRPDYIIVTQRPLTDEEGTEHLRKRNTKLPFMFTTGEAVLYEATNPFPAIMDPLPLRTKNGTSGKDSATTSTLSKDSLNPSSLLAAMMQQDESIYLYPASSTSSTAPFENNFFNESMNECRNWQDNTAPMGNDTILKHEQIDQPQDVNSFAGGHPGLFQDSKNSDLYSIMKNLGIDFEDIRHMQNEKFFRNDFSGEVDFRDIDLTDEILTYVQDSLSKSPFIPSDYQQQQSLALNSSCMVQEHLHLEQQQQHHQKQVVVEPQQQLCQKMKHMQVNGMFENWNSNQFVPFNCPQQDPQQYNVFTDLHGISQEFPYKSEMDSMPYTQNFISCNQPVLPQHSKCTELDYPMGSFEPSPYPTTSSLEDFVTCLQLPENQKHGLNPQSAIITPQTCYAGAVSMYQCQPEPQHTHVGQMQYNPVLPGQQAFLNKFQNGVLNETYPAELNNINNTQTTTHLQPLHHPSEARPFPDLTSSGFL

[10] = blockers of HIV-1 ZM109 envelope-driven cell-cell fusion – HeLa effector, CEM target cells, luciferase, cherry-pick, dose response (AID 652058); type: functional, cell-based;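 further: luciferase signal from HIV-1 Env mediated cell-cell fusion of effector and target cells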
[11] = target: Mitogen-activated protein kinase 10 (Homo sapiens, UniProt P53779); test: Dose response biochemical screening assay for inhibitors of c-Jun N-Terminal Kinase 3 (JNK3). [Related pubchem assays: 746 ]
[12] = HIV-1 AD8 envelope cell-cell fusion blockers – cherry-pick, dose response (AID 652062); type: functional, cell-based;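 further: luciferase signal from cell-cell fusion driven by HIV-1 clade B AD8 Env; potency is for inhibitors of fusion seen as a drop in luminescence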
[13] = target: T3, Ubiquitin-conjugating enzyme E2 N (Homo sapiens, UniProt P61088); type: functional
T3 sequence (P61088 whole entry): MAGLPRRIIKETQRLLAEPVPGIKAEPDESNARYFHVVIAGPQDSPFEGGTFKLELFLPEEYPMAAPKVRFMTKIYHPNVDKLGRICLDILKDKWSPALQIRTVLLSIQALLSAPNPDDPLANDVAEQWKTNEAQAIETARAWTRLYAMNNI

[14] = target: Procathepsin L (Homo sapiens, UniProt P07711); test: CTSL1 protease inhibition – biochemical, QFRET, 1536-well, counter-screen for M1/M17 aminopeptidase inhibitor project, dose response (AID 2214)
[15] = target: T4, Aminopeptidase N (Plasmodium falciparum FcB1/Columbia, UniProt O96935); test: malaria alanyl aminopeptidase activity blockers – biochemical, fluorogenic H-Leu-NHMec substrate, 1536-well (AID 1445); design: species or system Plasmodium falciparum 3D7, 3D7
T4 sequence (O96935 whole entry): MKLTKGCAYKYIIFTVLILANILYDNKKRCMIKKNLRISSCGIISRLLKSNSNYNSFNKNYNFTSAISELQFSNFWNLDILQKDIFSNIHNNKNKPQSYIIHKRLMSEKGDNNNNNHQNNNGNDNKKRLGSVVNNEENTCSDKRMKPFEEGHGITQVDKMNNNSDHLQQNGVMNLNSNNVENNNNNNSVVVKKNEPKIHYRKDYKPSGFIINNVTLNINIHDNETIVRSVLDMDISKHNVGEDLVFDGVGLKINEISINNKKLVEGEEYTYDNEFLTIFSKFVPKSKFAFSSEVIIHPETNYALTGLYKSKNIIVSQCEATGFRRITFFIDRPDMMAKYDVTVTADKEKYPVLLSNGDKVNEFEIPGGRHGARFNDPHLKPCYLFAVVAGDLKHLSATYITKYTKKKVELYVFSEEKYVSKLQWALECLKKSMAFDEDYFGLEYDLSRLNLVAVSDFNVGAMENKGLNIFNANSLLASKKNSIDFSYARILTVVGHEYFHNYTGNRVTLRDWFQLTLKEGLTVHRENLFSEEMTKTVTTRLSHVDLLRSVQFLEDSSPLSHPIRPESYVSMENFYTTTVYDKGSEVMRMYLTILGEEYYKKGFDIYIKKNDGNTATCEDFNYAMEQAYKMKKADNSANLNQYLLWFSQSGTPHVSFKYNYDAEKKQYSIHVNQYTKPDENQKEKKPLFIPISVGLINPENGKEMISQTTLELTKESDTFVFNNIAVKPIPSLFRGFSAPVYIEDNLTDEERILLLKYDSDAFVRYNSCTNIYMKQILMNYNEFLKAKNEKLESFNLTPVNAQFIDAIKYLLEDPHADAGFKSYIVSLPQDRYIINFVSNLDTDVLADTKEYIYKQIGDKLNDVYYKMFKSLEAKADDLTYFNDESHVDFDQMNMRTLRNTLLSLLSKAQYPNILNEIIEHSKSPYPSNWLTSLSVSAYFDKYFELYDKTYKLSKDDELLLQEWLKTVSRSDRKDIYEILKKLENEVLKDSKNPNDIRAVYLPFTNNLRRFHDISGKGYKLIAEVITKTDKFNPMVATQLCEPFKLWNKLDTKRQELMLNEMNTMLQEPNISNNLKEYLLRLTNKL

[16] = target: T5, Aspartyl aminopeptidase (Plasmodium falciparum 3D7, UniProt Q8I2J3); test: Counterscreen for inhibitors of M1 and M17 aminopeptidases: QFRET-based biochemical high throughput dose response assay for inhibitors of the Plasmodium falciparum M18 Aspartyl Aminopeptidase (PFM18AAP). [Related PubChem assays: 1619 (Screening assay (M17LAP inhibitors).), 1445 (Screening assay (M1AAP inhibitors).)]
T5 sequence (Q8I2J3 whole entry): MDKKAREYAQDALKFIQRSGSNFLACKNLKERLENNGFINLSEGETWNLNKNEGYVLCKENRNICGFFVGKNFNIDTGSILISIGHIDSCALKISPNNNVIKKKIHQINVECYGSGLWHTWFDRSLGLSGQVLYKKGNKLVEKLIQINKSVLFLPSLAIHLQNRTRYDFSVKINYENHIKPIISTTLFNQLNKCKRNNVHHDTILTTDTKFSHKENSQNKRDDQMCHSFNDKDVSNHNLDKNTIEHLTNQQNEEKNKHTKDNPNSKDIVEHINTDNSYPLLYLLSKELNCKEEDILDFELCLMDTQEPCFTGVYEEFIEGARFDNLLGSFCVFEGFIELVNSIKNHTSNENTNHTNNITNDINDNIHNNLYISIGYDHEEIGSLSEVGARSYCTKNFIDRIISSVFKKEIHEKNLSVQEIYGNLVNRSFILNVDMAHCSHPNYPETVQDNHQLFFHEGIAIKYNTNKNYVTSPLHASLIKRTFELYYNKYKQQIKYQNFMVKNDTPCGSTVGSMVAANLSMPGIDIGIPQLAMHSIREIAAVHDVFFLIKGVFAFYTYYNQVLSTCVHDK

[17] = target: T6, Bcl-2-related protein A1 (Mus musculus, UniProt Q07440); type: functional;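 further: confirmatory dose–response counterscreen on Bfl-1, used to check hits from a UBC13 polyubiquitin inhibitor campaign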
T6 sequence (Q07440 whole entry): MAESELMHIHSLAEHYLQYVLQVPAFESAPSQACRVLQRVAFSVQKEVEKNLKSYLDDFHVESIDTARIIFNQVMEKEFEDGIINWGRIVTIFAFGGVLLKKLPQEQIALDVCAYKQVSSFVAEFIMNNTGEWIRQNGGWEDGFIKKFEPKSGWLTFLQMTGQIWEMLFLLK

[18] = target: T3, Ubiquitin-conjugating enzyme E2 N; type: functional; remark: listed apart in the source

Sequence of Mitogen-activated protein kinase 10 (P53779 whole entry, the tested form may be a part): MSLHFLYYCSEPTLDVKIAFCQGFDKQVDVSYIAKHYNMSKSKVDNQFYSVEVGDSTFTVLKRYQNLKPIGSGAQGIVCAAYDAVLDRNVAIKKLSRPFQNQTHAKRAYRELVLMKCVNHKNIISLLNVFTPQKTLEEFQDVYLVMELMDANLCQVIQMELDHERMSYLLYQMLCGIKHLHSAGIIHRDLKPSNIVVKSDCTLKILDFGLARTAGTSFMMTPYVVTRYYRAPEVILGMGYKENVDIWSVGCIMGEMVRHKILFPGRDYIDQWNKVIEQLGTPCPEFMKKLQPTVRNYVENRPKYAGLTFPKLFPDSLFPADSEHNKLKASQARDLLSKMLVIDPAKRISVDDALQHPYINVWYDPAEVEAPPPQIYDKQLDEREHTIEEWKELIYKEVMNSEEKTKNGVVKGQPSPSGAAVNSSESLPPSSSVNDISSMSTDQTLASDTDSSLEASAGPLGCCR
Sequence of Procathepsin L (P07711 whole entry): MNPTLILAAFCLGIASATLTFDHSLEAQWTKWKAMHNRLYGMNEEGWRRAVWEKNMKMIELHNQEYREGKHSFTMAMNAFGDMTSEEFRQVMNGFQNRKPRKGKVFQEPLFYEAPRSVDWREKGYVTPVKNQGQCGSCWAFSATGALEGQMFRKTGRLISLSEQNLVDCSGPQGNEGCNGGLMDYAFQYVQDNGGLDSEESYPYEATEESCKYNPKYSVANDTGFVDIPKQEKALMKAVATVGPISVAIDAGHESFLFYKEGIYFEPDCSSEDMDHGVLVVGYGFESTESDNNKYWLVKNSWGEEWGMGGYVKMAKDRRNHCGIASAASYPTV
Sequence of FAD-linked sulfhydryl oxidase ALR (P55789 whole entry): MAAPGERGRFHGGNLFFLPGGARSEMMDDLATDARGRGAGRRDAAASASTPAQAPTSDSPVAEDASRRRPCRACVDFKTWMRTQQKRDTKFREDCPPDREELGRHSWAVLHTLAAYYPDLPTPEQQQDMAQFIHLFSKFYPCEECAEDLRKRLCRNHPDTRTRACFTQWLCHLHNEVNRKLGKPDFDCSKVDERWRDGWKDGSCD

In the case of C=C1C(=O)C=C[C@]2(C)C[C@@H]3OC(=O)[C@](C)(O)[C@H]3C[C@@H]12, the EC50 [1] is reported as 0.887 µM (active), the EC50 [2] is reported as 0.153 µM (active) and the CC50 [3] is reported as 10.8 µM (active). For the same molecule, the AC50 [4] was 4.35 µM (active), the EC50 [5] was 0.106 µM (active) and the IC50 [6] was 24.7 µM (active). The AC50 [7] was 10.3 µM (active).
In the case of COc1ccccc1C(=O)Nc1ccc(N2CCCCC2)cc1, the AC50 [8] is reported as 13.4 µM (active) and the EC50 [9] is reported as 2.91 µM (active).
In the case of N#Cc1c(NCc2ccccc2)ccnc1NCc1cccnc1, the AC50 [10] is reported as 0.861 µM (active), the IC50 [11] is reported as 3.96 µM (active) and the AC50 [12] is reported as 5.44 µM (active).
For CC(=O)N1NC(=C2C(=O)N(C)C(=O)N(C)C2=O)CC1c1ccccc1 (centres undefined), the IC50 [13] was 12.5 µM (active), the IC50 [14] was > 59.6 µM (not active) and the IC50 [15] was 16 µM (active). For the same molecule, the IC50 [16] was > 73.5 µM (not active), the IC50 [17] was > 20 µM (inactive) and the IC50 [18] was 19.5 µM (active).
For c1ccc2nc3c(nc2c1)c1ccccc1n3CCN1CCOCC1, the IC50 [11] was > 93.1 µM (not active).
